Assay results from US12364719B2, “Bacillus subtilis strains improving animal performance parameters” (priority 2017, dated 2025).
Read-outs that look alike come from different tables or passages of the source.

System: Clostridium perfringens strain 56
Type: in vivo, Male Ross 308 broilers
Conditions: for Mean score (NE): 0-6 score

Q: Which “% NE (birds positive to macroscopic necrotic enteritis lesions)” value (“% NE” for short) (Day 25, lesion score 2, infected day 19-22) does the source give for `CC1(C)S[C@@H]2[C@H](NC(=O)[C@H](N)c3ccc(O)cc3)C(=O)N2[C@H]1C(=O)O` [Amoxicillin] here?
A: 44%

Q: And the “% NE” value (Day 25 and 26 combined)?
A: 29%

Q: What about the “Mean score (NE)” value (Day 25 and 26 combined) of the same compound?
A: 1.315

Q: What about the “Mean score (NE)” value (Day 26) of the same compound?
A: 1.07

Q: And the “% NE” value (Day 26, lesion score 2, infected day 19-22)?
A: 14%
